Measured values reported in patent US8735620B2, “Processes for preparing (E)-styrylbenzylsulfone compounds and uses thereof for treating proliferative disorders” (priority 2008, dated 2014).
Like-named read-outs stand apart in the source and are kept apart here.

Experiments:
[1] = test system: BT20, DU145, H157 and DLD1 cell lines; assay: In vitro cytotoxicity, four human tumor cell lines (SAR discussion); format: cell-based; conditions: for activity in cell-killing assays: at the highest concentration (20 μM) tested
Procedure: A number of tumor cell lines were tested using a dose response end point assay system. The cells were grown in either DMEM or RPMI supplemented with 10% fetal bovine serum and 1 unit/mL Penicillin-Streptomycin solution. The tumor cells were plated into 6 well dishes at a cell density of 1.0×10^5 cells/mL/well and compounds were added 24 h later at various concentrations. Cell counts were determined from duplicate wells after 96 h of treatment. The total number of viable cells was determined by trypan blue exclusion.
Following the synthesis of this group of compounds, their in vitro cytotoxicity was assessed using four different human tumor cell lines derived from human breast (BT20), prostate (DU145), lung (H157) and colorectal (DLD1) cancers. […] In a majority of the compounds described here, a methoxy group was kept constant at the 4th position on the aromatic ring of the benzyl moiety.

[2] = test system: H157 (human lung tumor cell line); assay: Cytotoxicity assay (trypan blue exclusion, 96 h), H157; format: cell-based; conditions: H157, 96 h treatment; read-out: H157 IC50
Text: (§2) Tissue Culture and Reagents: Paclitaxel was purchased from Sigma. Cell lines were purchased from ATCC. Cell lines were routinely grown in DMEM or RPM1 (CellGro) supplemented with 10% fetal bovine serum (Atlas) and 1 unit/mL penicillin-streptomycin (Gibco).

[3] = test system: BT20 (human breast tumor cell line); assay: Cytotoxicity assay (trypan blue exclusion, 96 h), BT20; format: cell-based; conditions: BT20, 96 h treatment
Text: as §2

[4] = test system: DLD1 (human colorectal tumor cell line); assay: Cytotoxicity assay (trypan blue exclusion, 96 h), DLD1; format: cell-based; conditions: DLD1, 96 h treatment; read-out: DLD1 IC50
Text: as §2

[5] = test system: DU145 (human prostate tumor cell line); assay: Cytotoxicity assay (trypan blue exclusion, 96 h), DU145; format: cell-based; conditions: DU145, 96 h treatment; read-out: DU145 IC50
Text: as §2

[6] = test system: MES-SA/DX5; assay: Tumor cell killing, MES-SA/DX5 (multidrug resistant subline); format: cell-based, human
Procedure: (§1) A. 6aa inhibits the growth of parental (MES-SA) and Paclitaxel resistant (MES-SA/DX5) cell lines with equal efficiency. The parental uterine sarcoma cells and the MDR positive (MES-SA/DX5) cells were plated into 6 well dishes and treated with various concentrations of 6aa and Paclitaxel for 96 h. The number of viable cells from duplicate plates was determined by trypan blue exclusion. B. Soft Agar Assays. MIA-PaCa-2 cells (1.0×10^5) were plated in soft agar containing various concentrations of each compound in triplicates. After three weeks of growth, the plates were stained for 48 h using 0.05% nitroblue tetrazolium solution. Representative plates were photographed using an Olympus stereoscope mounted with a Sony digital camera system (DKC5000, Sony Inc). Tissue Culture and Reagents: […] Cell lines were purchased from ATCC. Cell lines were routinely grown in DMEM or RPM1 (CellGro) supplemented with 10% fetal bovine serum (Atlas) and 1 unit/mL penicillin-streptomycin (Gibco). A number of tumor cell lines were tested using a dose response end point assay system. The cells were grown in either DMEM or RPMI supplemented with 10% fetal bovine serum and 1 unit/mL Penicillin-Streptomycin solution. […] Cell counts were determined from duplicate wells after 96 h of treatment. The total number of viable cells was determined by trypan blue exclusion.

[7] = test system: MES-SA; assay: Tumor cell killing, MES-SA (parental uterine sarcoma); format: cell-based, human; conditions: Homo sapiens; parental cell line MES-SA, 96 h dose response; read-out: IC50
Procedure: as §1

[8] = test system: MIA-PaCa-2 cells; assay: Soft agar colony formation, MIA-PaCa-2; format: cell-based, human
Procedure: FIG. 1 Anti-tumor effects of (E)-2,4,6-Trimethoxystyryl-3-Hydroxy-4-Methoxybenzyl Sulfone (6aa). A. 6aa inhibits the growth of parental (MES-SA) and Paclitaxel resistant (MES-SA/DX5) cell lines with equal efficiency. The parental uterine sarcoma cells and the MDR positive (MES-SA/DX5) cells were plated into 6 well dishes and treated with various concentrations of 6aa and Paclitaxel for 96 h. The number of viable cells from duplicate plates was determined by trypan blue exclusion. B. Soft Agar Assays. MIA-PaCa-2 cells (1.0×10^5) were plated in soft agar containing various concentrations of each compound in triplicates. After three weeks of growth, the plates were stained for 48 h using 0.05% nitroblue tetrazolium solution. Representative plates were photographed using an Olympus stereoscope mounted with a Sony digital camera system (DKC5000, Sony Inc).
The soft agar plates were prepared as described by Cosenza, et al (Cosenza, S. C. et al. In Cell Growth, Differentiation and Senescence, Studzinski, G. P., Ed.; Oxford University Press: 1999, 161-176.). Briefly, Noble bottom agar (0.8%) was plated onto 60 mm tissue culture plates. Exponentially growing MIA-PaCa-2 cells (1.0×10^5) were mixed with growth medium with various concentrations of each compound and mixed with Noble agar to a final concentration of 0.4%. Each concentration was plated in triplicate. The top agar was allowed to solidify and the plates were then incubated at 5% CO2 at 37° C. for 3 weeks. The plates were then stained with 0.05% nitroblue tetrazolium (NBT) solution and representative plates were photographed using an Olympus stereoscope mounted with a Sony digital camera system (DKC5000, Sony Inc).

[9] = test system: BT20; assay: Soft agar colony formation, BT20; format: cell-based, human; conditions: BT20, dose dependent
[10] = test system: DU145; assay: Soft agar colony formation, DU145; format: cell-based, human; conditions: DU145, dose dependent
[11] = Single dose and repeat-dose toxicology studies in mice; format: in vivo
[12] = Water solubility
[13] = Acute and repeat toxicity studies in rats; format: in vivo; conditions: intravenous
Procedure: Single dose and repeat-dose (28 daily injections) toxicology studies were carried out with one water-soluble form of this series (6ab) to assess the safety of intravenously administered drug in rats.

[14] = test system: mantle cell lymphoma cell lines; conditions: Park et al Oncogene 2007; cited from earlier work
[15] = test system: BT20 human breast carcinoma xenograft; assay: Nude mouse xenograft assay
Procedure: Female athymic (NCr-nu/nu) mice were injected subcutaneously with 0.5-1×10^7 ER-negative human breast tumor cells (BT-20) in 0.2 mL of PBS and the tumors allowed to grow to a size of 100-150 mm^3 in size in about 14 days. The mice were then paired such that the pairs harbored equal sized tumors, which were then used to test the therapeutic effects of 6s and 6ab. A Of the pairs, the animals were treated with either 50 mg/kg 6s following a Q4D schedule or 25 mg/kg using a Q2D schedule or vehicle (DMSO) control. The tumor size was then measured on alternate days in two dimensions and the volume determined using either of the following equations: 1: V=(L×(S^2))π/6); where L is the longer and S is the shorter of the two measurements. B. 6ab was dissolved in PBS and was administered intravenously (50 mg/kg) through the tail vein on every alternate day. Tumor measurements were done as in materials and methods.
Female athymic (NCR-nu/nu, Taconic) nude mice were injected with 0.5-1.0×10^7 BT20 cells subcutaneously in the hind leg using a 1 mL tuberculin syringe equipped with a 271/2 gauge needle. Approximately 14 days later, mice were paired (N=8) and injected with 6ab or Phosphate buffered saline as the vehicle control. The intravenous injections were performed in the mouse tail vein using a 1 mL tuberculin syringe equipped with a 30 gauge needle. The animals were injected following a Q2D×3 schedule. Tumor measurements (two dimensions) were done three times per week using traceable digital vernier calipers (Fisher).

[16] = single dose and repeat-dose (28 daily injections)

Compound	IC50 [2] [µM]	IC50 [3] [µM]	IC50 [4] [µM]	IC50 [5] [µM]	other results
COc1ccc(CS(=O)(=O)/C=C/c2ccc(OC)c(OC)c2OC)cc1 [6r, (E)-2,3,4-Trimethoxystyryl-4-Methoxybenzyl sulfone]	> 20	> 20	> 20	> 20	activity in cell-killing assays [1]: totally inactive
COc1ccc(CS(=O)(=O)/C=C/c2cc(OC)c(OC)c(OC)c2)cc1 [6t, (E)-3,4,5-Trimethoxystyryl-4-Methoxybenzyl sulfone]	> 20	> 20	> 20	> 20	activity in cell-killing assays [1]: totally inactive
COc1ccc(CS(=O)(=O)/C=C/c2c(OC)cc(O)cc2OC)cc1 [6u, (E)-2,6-Dimethoxy-4-hydroxystyryl-4-Methoxybenzyl sulfone]	> 20	> 20	> 20	> 20	cytotoxic activity, SAR statement ([1]; four human tumor cell lines): either a reduced level or total loss of activity
COc1ccc(CS(=O)(=O)/C=C/c2c(OC)cc(F)cc2OC)cc1 [6v, (E)-2,6-Dimethoxy-4-fluorostyryl-4-Methoxybenzyl sulfone]	0.5	0.75	0.75	0.5	cytotoxic activity, SAR statement [1]: either a reduced level or total loss of activity
COc1ccc(CS(=O)(=O)/C=C/c2c(C)cc(C)cc2C)cc1 [6w, (E)-2,4,6-Trimethylstyryl-4-Methoxybenzyl sulfone]	> 20	> 20	> 20	> 20	cytotoxic activity, SAR statement [1]: inactive
CC(=O)O[C@H]1C(=O)[C@@]2(C)[C@H]([C@H](OC(=O)c3ccccc3)[C@]3(O)C[C@H](OC(=O)[C@H](O)[C@@H](NC(=O)c4ccccc4)c4ccccc4)C(C)=C1C3(C)C)[C@]1(OC(C)=O)CO[C@@H]1C[C@@H]2O [Paclitaxel, reference compound]					IC50 ([6]; Homo sapiens, MDR positive subline MES-SA/DX5, 96 h dose response, read-out: IC50): 750 nM; fold resistance of MDR positive subline versus parental cell line ([6]; MES-SA/DX5 vs MES-SA): greater than 100 fold; IC50 [7]: 4 nM; potency in soft agar relative to 6aa and 6ab ([8]; positive control, FIG. 1b): slightly lower potency
(E)-2,4,6-Trimethoxystyryl-3^1-O-phosphate disodium-4-methoxybenzyl Sulfone [6ab]	0.007	0.005	0.007	0.0025	growth of tumor cells in soft agar [9]: complete inhibition of the growth of tumor cells; growth of tumor cells in soft agar [10]: complete inhibition of the growth of tumor cells; drug levels in circulation [11]: High, dose dependent, drug levels were sustained in circulation; hematotoxicity, liver damage, neurotoxicity [11, 16]: did not cause hematotoxicity (no myleosuppression), liver damage or detectable neurotoxicity; cytotoxic activity, SAR statement ([1]; four human tumor cell lines): did not alter the potency; water solubility [12]: highly water-soluble; drug levels in circulation [13]: High dose dependent drug levels were sustained in circulation; hematotoxicity, liver damage, neurotoxicity [13, 16]: did not cause hematotoxicity (no myleosuppression), liver damage or any detectable neurotoxicity; effect on mantle cell lymphoma cell lines [14]: altered the growth and cell cycle status; tumor growth in xenograft model ([15]; 50 mg/kg IV tail vein, alternate days, 21 days): readily inhibited tumor growth; tumor volume response of the majority of the mice ([15]; 8 mice per group): growth arrest or a gradual reduction in their tumor volume; animal deaths ([15]; IV, Q2D×3 schedule): nor were there any animal deaths; body weight loss ([15]; IV, Q2D×3 schedule): Body weight loss of more than 10% was not observed; growth of tumor cells in soft agar ([8]; MIA-PaCa-2, dose dependent, three weeks): complete inhibition of the growth of tumor cells
